In BindingDB's records for doi:10.1016/j.chembiol.2006.05.008 (Gpc Biotech, 2006):

Molecular target: Cyclin-dependent kinase 2 (Homo sapiens, UniProt P24941)
Assay: Enzymatic Assay
Method: CAII assays were performed at CEREP (paris). All other kinase assays were performed at Upstate (Dundee, UK).

EC50: 70 nM
IC50: 20 nM
SMILES: CC(C)c1nn(-c2c(Cl)cc(Cl)cc2Cl)c2nc(Cc3ccc(OC(C)(C)C(=O)O)cc3)[nH]c(=O)c12 [RGB-285961]
